Laboratory results from the NIST ThermoML archive (doi:10.1016/j.fluid.2015.03.015).
Numbers after ± are expanded uncertainties.

Assay: refractive index (other wavelength) (dimensionless)
Details: 85 kPa, Liquid, Wavelength=632.8 nm, Minimum Deviation

SMILES: CCCCCCCC[n+]1ccn(C)c1.F[B-](F)(F)F [1-methyl-3-octylimidazolium tetrafluoroborate]
- refractive index (288.81 K): 1.4343 ± 0.0003
- refractive index (290.85 K): 1.4338 ± 0.0003
- refractive index (292.91 K): 1.4332 ± 0.0003
- refractive index (294.95 K): 1.4327 ± 0.0003
- refractive index (297 K): 1.4321 ± 0.0003
- refractive index (297.74 K): 1.4319 ± 0.0003
- refractive index (299.06 K): 1.4316 ± 0.0003
- refractive index (299.31 K): 1.4315 ± 0.0003
- refractive index (300.78 K): 1.4312 ± 0.0003
- refractive index (301.11 K): 1.431 ± 0.0003
- refractive index (302.3 K): 1.4307 ± 0.0003
- refractive index (303.2 K): 1.4304 ± 0.0003
- refractive index (303.84 K): 1.4303 ± 0.0003
- refractive index (305.32 K): 1.4299 ± 0.0003
- refractive index (306.84 K): 1.4295 ± 0.0003
- refractive index (308.35 K): 1.429 ± 0.0003

SMILES: CCCCCCCO [heptan-1-ol]
- refractive index (297.43 K): 1.4217 ± 0.0003
- refractive index (298.87 K): 1.4211 ± 0.0003
- refractive index (300.46 K): 1.4205 ± 0.0003
- refractive index (301.93 K): 1.4199 ± 0.0003
- refractive index (303.44 K): 1.4193 ± 0.0003
- refractive index (305.08 K): 1.4187 ± 0.0003
- refractive index (306.72 K): 1.418 ± 0.0003
- refractive index (308.35 K): 1.4174 ± 0.0003

SMILES: CCCC(C)O (stereo not given) [pentan-2-ol]
- refractive index (289.22 K): 1.407 ± 0.0003
- refractive index (292.33 K): 1.4058 ± 0.0003
- refractive index (295.95 K): 1.4042 ± 0.0003
- refractive index (299.54 K): 1.4027 ± 0.0003
- refractive index (302.62 K): 1.4013 ± 0.0003
- refractive index (306.2 K): 1.3997 ± 0.0003
